Key:
HEL 92.1.7 = assay: MTT cell viability assay, HEL cells; format: cell-based; conditions: Homo sapiens, 48 h drug exposure
Experimental: HEL 92.1.7 [American Type Culture Collection (ATCC) reference number TIB-180]. This a human cancer cell line derived from the bone marrow of a person with erythroleukemia, which is a form of AML.
(§1) Cell viability was assayed by measuring the mitochondrial reduction of the tetrazolium salt 3-(4,5-methyltiazol-2yl)-2,5diphenyl-tetrazolium bromide] (MTT) (Applichen; A2231,0010) [Mosmann T. J Immunol Methods. 1983 16;65(1-2):55-63 (ref. 36); Chuan Y-C et al 2010. Oncogene. 29 (10), 1531-1542 (ref. 37)]. Cells were seeded in 96-well plates in medium (either RPMI, DMEM or McCoys depending on the recommendations from the ATCC) supplemented with 10% FBS (Lonza Cat. N°: 14-502F), 2mM L-Glut (Lonza Cat. N°: BE17-605E) and 100U/ml PEST (Lonza Cat. N°: DE17-605E) at a cell density of 1000-5000 cells/well (96 well plate). Cells were seeded at a density according to their exponential growth phase (normally 1000 to 5000/well). The cells were cultured at 37 °C in the dark in air containing 5% CO2. After 24h either vehicle (0.05% DMSO) or drug were added to culture medium at the indicated concentrations (10 to 0,01microM). After another 48 h, MTT (0.3 mg/ml) was added to cells, followed by incubation for 2-4h at 37 °C in the dark. The medium was then removed and the precipitated formazan was solubilized by the addition of DMSO (200 µL).
(§2) The optical density was measured at 595 nm with the iMark Microplate Reader (BioRad, USA). Data was expressed as percent growth above the level in controls and the results in figures were plotted as means ± SEM of each test point from 3 replicates.
(§3) Statistical analysis. The concentration of drug that provokes 50% reduction of cell viability (IC50) was determined by using non-linear regression analysis and data were fitted to a log concentration vs normalized response curve in GraphPad software v5 (San Diego, CA).

MDA-MB-231 = assay: MTT cell viability assay, MDA-MB-231 cells; format: cell-based, human; conditions: Homo sapiens, 48 h drug exposure
Experimental: MDA-MB-231 [American Type Culture Collection (ATCC) reference number HTB-26]. This a human breast cancer cell line derived from a metastatic site from a person.
as §1, §2, §3

PANC-1 = assay: MTT cell viability assay, PANC-1 cells; format: cell-based; conditions: Homo sapiens, 48 h drug exposure
Experimental: PANC-1 [American Type Culture Collection (ATCC) reference number CRL-1469]. This a human cancer cell line derived from the pancreas of a person.
as §1, §2, §3

MCF-7 = assay: MTT cell viability assay, MCF-7 cells; format: cell-based; conditions: Homo sapiens, MCF7, 48 h drug exposure
Experimental: as §1, §2, §3

DU-145 = assay: MTT cell viability assay, DU-145 cells; format: cell-based; conditions: Homo sapiens, 48 h drug exposure
Experimental: DU-145 [American Type Culture Collection (ATCC) reference number HTB-81]. This a human prostate cancer cell line derived from a metastatic site (brain) of a person.
as §1, §2, §3

K562 = assay: MTT cell viability assay, K562 cells; format: cell-based; conditions: Homo sapiens, 48 h drug exposure
Experimental: K562 [American Type Culture Collection (ATCC) reference number CCL-243]. This a human cancer cell line derived from the bone marrow of a person with CML.
as §1, §2, §3

SMILES: COc1ccc(OC)c2c1C(=O)C1=C(C2=O)N(c2ccc(N3CCOCC3)nc2)Cc2ccccc2O1 [Compound 86]
- IC50 (HEL 92.1.7): 0.59 µM
- IC50 (MDA-MB-231): 1.28 µM
- IC50 (PANC-1): 3.89 µM

SMILES: CN1CCN(c2ccc(N3Cc4ccccc4OC4=C3C(=O)c3ccccc3C4=O)cn2)CC1 [Compound 100, 12-(6-(4-methylpiperazin-1-yl)pyridin-3-yl)-12,13-dihydrobenzo[f]naphtho [2,3-b][1,4]oxazepine-6,11-dione]
- IC50 (MCF-7): 1.95 µM
- IC50 (MDA-MB-231): 1.63 µM
- IC50 (PANC-1): 1.8 µM
- IC50 (DU-145): 3.4 µM

SMILES: N#Cc1ccc(N2Cc3ccccc3OC3=C2C(=O)c2cccc(O)c2C3=O)cc1 [Compound 75]
- IC50 (MCF-7): 2.36 µM
- IC50 (MDA-MB-231): 2.7 µM
- IC50 (PANC-1): 5.49 µM
- IC50 (DU-145): 3.89 µM

SMILES: O=C1C2=C(C(=O)c3ccccc31)N(c1ccccc1)Cc1ccccc1O2 [Compound 1, 12-phenyl-12,13-dihydrobenzo[f]naphtho[2,3-b][1,4]oxazepine-6,11-dione]
- IC50 (HEL 92.1.7): 0.45 µM
- IC50 (MDA-MB-231): 1.59 µM
- IC50 (K562): 0.98 µM

SMILES: COC(=O)CNC(=O)c1ccc(N2Cc3ccccc3OC3=C2C(=O)c2c(O)ccc(O)c2C3=O)cc1 [Compound 102, methyl (4-(7,10-dihydroxy-6,11-dioxo-6,11-dihydrobenzo[f]naphtho[2,3-b][1,4]oxazepin-12(13H)-yl)benzoyl)glycinate]
- IC50 (MDA-MB-231): 0.17 µM
- IC50 (DU-145): 1 µM
- IC50 (K562): 0.42 µM

SMILES: CN(C)CCNc1ccc(N2Cc3ccccc3OC3=C2C(=O)c2c(O)ccc(O)c2C3=O)cn1 [Compound 97, 12-(6-((2-(dimethylamino)ethyl)amino)pyridin-3-yl)-7,10-dihydroxy-12,13-dihydrobenzo[f]naphtho[2,3-b][1,4]oxazepine-6,11-dione]
- IC50 (MCF-7): 0.79 µM
- IC50 (MDA-MB-231): 0.35 µM
- IC50 (PANC-1): 0.42 µM
- IC50 (DU-145): 0.68 µM
- IC50 (K562): 0.44 µM

SMILES: CN(CCO)c1ccc(N2Cc3ccccc3OC3=C2C(=O)c2ccccc2C3=O)cn1 [Compound 49]
- IC50 (HEL 92.1.7): 1.22 µM
- IC50 (MDA-MB-231): 2.63 µM
- IC50 (PANC-1): 3.43 µM

SMILES: O=C1C2=C(C(=O)c3ccccc31)N(c1ccc(N3CCOCC3)nc1)Cc1ccccc1O2 [Compound 99]
- IC50 (MCF-7): 2.28 µM
- IC50 (MDA-MB-231): 2.09 µM
- IC50 (PANC-1): 2.61 µM
- IC50 (DU-145): 4.3 µM

SMILES: CN1CCN(c2ccc(N3Cc4ccccc4OC4=C3C(=O)c3cccc(O)c3C4=O)cn2)CC1 [Compound 106]
- IC50 (MDA-MB-231): 0.74 µM
- IC50 (PANC-1): 0.71 µM

SMILES: NC(=O)c1ccc(N2Cc3ccccc3OC3=C2C(=O)c2c(O)ccc(O)c2C3=O)cc1 [Compound 10, 4-(7,10-dihydroxy-6,11-dioxo-6,11-dihydrobenzo[f]naphtho[2,3-b][1,4]oxazepin-12(13H)-yl)benzamide]
- IC50 (MCF-7): 1.85 µM
- IC50 (MDA-MB-231): 0.63 µM
- IC50 (PANC-1): 0.36 µM
- IC50 (DU-145): 6.18 µM
- IC50 (K562): 0.09 µM

SMILES: NS(=O)(=O)c1ccc(N2Cc3cc(F)ccc3OC3=C2C(=O)c2c(O)ccc(O)c2C3=O)cc1 [Compound 23]
- IC50 (MCF-7): 3.23 µM
- IC50 (MDA-MB-231): 2.54 µM
- IC50 (PANC-1): 0.57 µM
- IC50 (DU-145): 8.16 µM
- IC50 (K562): 0.54 µM

SMILES: CN(C)c1ccc(N2Cc3ccccc3OC3=C2C(=O)c2ccccc2C3=O)cn1 [Compound 98]
- IC50 (MCF-7): 3.54 µM
- IC50 (MDA-MB-231): 2.17 µM
- IC50 (PANC-1): 2.94 µM
- IC50 (DU-145): 4.7 µM

SMILES: CN(C)c1ccc(N2Cc3ccccc3OC3=C2C(=O)c2cccc(O)c2C3=O)cn1 [Compound 103]
- IC50 (MCF-7): 1.74 µM
- IC50 (MDA-MB-231): 1.4 µM
- IC50 (PANC-1): 1.41 µM
- IC50 (DU-145): 1.8 µM

SMILES: COc1ccc(O)c2c1C(=O)C1=C(Oc3ccccc3CN1c1ccccc1)C2=O [Compound 84]
- IC50 (MCF-7): 3.98 µM
- IC50 (HEL 92.1.7): 3.71 µM
- IC50 (MDA-MB-231): 1.18 µM

SMILES: O=C1C2=C(C(=O)c3ccccc31)N(c1cccnc1)Cc1ccccc1O2 [Compound 4, 12-(pyridin-3-yl)-12,13-dihydrobenzo[f]naphtho[2,3-b][1,4]oxazepine-6,11-dione]
- IC50 (MCF-7): 5.12 µM
- IC50 (MDA-MB-231): 1.52 µM
- IC50 (PANC-1): 4.36 µM
- IC50 (DU-145): 8.9 µM
- IC50 (K562): 0.98 µM

SMILES: COc1cccc2c1OC1=C(C(=O)c3c(O)ccc(O)c3C1=O)N(c1ccc(C#N)cc1)C2 [Compound 26]
- IC50 (MCF-7): 3.17 µM
- IC50 (MDA-MB-231): 0.39 µM
- IC50 (PANC-1): 0.47 µM
- IC50 (DU-145): 7.35 µM
- IC50 (K562): 0.13 µM

SMILES: COc1ccc(O)c2c1C(=O)C1=C(C2=O)N(c2cccc(C#N)c2)Cc2ccccc2O1 [Compound 66]
- IC50 (MCF-7): 2.34 µM
- IC50 (HEL 92.1.7): 0.05 µM
- IC50 (MDA-MB-231): 1.21 µM

SMILES: CN(C)CCNc1ccc(N2Cc3ccccc3OC3=C2C(=O)c2ccccc2C3=O)cn1 [Compound 73]
- IC50 (MCF-7): 2.27 µM
- IC50 (MDA-MB-231): 1.64 µM
- IC50 (PANC-1): 1.7 µM
- IC50 (DU-145): 2.7 µM

SMILES: NC(=O)c1cccc(N2Cc3cc(Cl)ccc3OC3=C2C(=O)c2c(O)ccc(O)c2C3=O)c1 [Compound 44]
- IC50 (MCF-7): 0.97 µM
- IC50 (MDA-MB-231): 0.73 µM
- IC50 (PANC-1): 0.32 µM
- IC50 (K562): 0.06 µM

SMILES: NC(=O)c1ccc(N2Cc3ccccc3OC3=C2C(=O)c2ccccc2C3=O)cc1 [Compound 17, 4-(6,11-dioxo-6,11-dihydrobenzo[f]naphtho[2,3-b][1,4]oxazepin-12(13H)-yl)benzamide]
- IC50 (MCF-7): 5.91 µM
- IC50 (DU-145): 5.77 µM
- IC50 (K562): 0.65 µM

SMILES: CN(C)CCNc1ccc(N2Cc3ccccc3OC3=C2C(=O)c2cccc(O)c2C3=O)cn1 [Compound 105]
- IC50 (MCF-7): 1.99 µM
- IC50 (MDA-MB-231): 0.71 µM
- IC50 (PANC-1): 0.69 µM
- IC50 (DU-145): 1.51 µM

SMILES: O=C1C2=C(Oc3ccccc3CN2c2ccc(N3CCOCC3)nc2)C(=O)c2c(O)cccc21 [Compound 104]
- IC50 (MCF-7): 1.82 µM
- IC50 (MDA-MB-231): 1.02 µM
- IC50 (PANC-1): 1.23 µM
- IC50 (DU-145): 1.6 µM

SMILES: COc1cccc2c1OC1=C(C(=O)c3c(O)ccc(O)c3C1=O)N(c1ccc(C(N)=O)cc1)C2 [Compound 56]
- IC50 (MCF-7): 3.04 µM
- IC50 (MDA-MB-231): 0.4 µM
- IC50 (DU-145): 7.22 µM
- IC50 (K562): 0.19 µM

SMILES: O=C1C2=C(C(=O)c3c(O)ccc(O)c31)N(c1ccccc1)Cc1ccccc1O2 [Compound 45, 7,10-dihydroxy-12-phenyl-12,13-dihydrobenzo[f]naphtho[2,3-b][1,4]oxazepine-6,11-dione]
- IC50 (HEL 92.1.7): 0.09 µM
- IC50 (MDA-MB-231): 0.13 µM
- IC50 (DU-145): 0.57 µM
- IC50 (K562): 0.09 µM

SMILES: N#Cc1cccc(N2Cc3cc(Cl)ccc3OC3=C2C(=O)c2c(O)ccc(O)c2C3=O)c1 [Compound 43]
- IC50 (MCF-7): 1.3 µM
- IC50 (MDA-MB-231): 0.81 µM
- IC50 (PANC-1): 0.74 µM
- IC50 (K562): 0.76 µM

SMILES: O=C1C2=C(Oc3ccccc3CN2c2cccnc2)C(=O)c2c(O)cccc21 [Compound 76]
- IC50 (MCF-7): 2 µM
- IC50 (MDA-MB-231): 1.8 µM
- IC50 (PANC-1): 1.86 µM
- IC50 (DU-145): 2.3 µM

SMILES: NC(=O)c1ccc(N2Cc3cc(F)ccc3OC3=C2C(=O)c2c(O)ccc(O)c2C3=O)cc1 [Compound 55]
- IC50 (MCF-7): 3.45 µM
- IC50 (MDA-MB-231): 3.35 µM
- IC50 (PANC-1): 0.89 µM
- IC50 (K562): 0.33 µM

SMILES: COc1ccc(OC)c2c1C(=O)C1=C(C2=O)N(c2cccnc2)Cc2ccccc2O1 [Compound 85, 7,10-dimethoxy-12-(pyridin-3-yl)-12,13-dihydrobenzo[f]naphtho[2,3-b][1,4]oxazepine-6,11-dione]
- IC50 (MCF-7): 2.57 µM
- IC50 (HEL 92.1.7): 0.33 µM
- IC50 (MDA-MB-231): 1.03 µM
- IC50 (PANC-1): 1.78 µM
- IC50 (K562): 0.38 µM

SMILES: NS(=O)(=O)c1ccc(N2Cc3ccccc3OC3=C2C(=O)c2ccccc2C3=O)cc1 [Compound 19]
- IC50 (MCF-7): 7.9 µM
- IC50 (HEL 92.1.7): 1 µM
- IC50 (DU-145): 8.36 µM
- IC50 (K562): 1.39 µM

SMILES: CN(CCO)c1ccc(N2Cc3ccccc3OC3=C2C(=O)c2c(O)ccc(O)c2C3=O)cn1 [Compound 61]
- IC50 (HEL 92.1.7): 0.1 µM
- IC50 (MDA-MB-231): 0.41 µM
- IC50 (DU-145): 0.92 µM
- IC50 (K562): 0.16 µM

Source: patent publication EP4177246A1, “FUSED OXAZEPINES AS INHIBITORS OF PEROXIREDOXINS” (Centro Atlántico del Medicamento, SA, priority 2021, dated 2023)
